Literature values, collected in US10420763B2, “Sublingual apomorphine” (Sunovion Pharmaceuticals Inc., priority 2009, dated 2019).

Tested on: Parkinson's patients

CN1CCc2cccc3c2[C@H]1Cc1ccc(O)c(O)c1-3 [apomorphine]
adverse effects of intranasal administration (intranasal administration (Koller et al. 2004)): transient nasal blockage, burning sensation and swollen nose and lips
common side effect of subcutaneous injection (subcutaneous injection (Prietz et al. 1998)): development of nodules, which often become infected
adverse effects of sublingual tablets (sublingual administration of apomorphine tablets, prolonged use (Deffond et al. 1993)): severe stomatitis on prolonged use with buccal mucosal ulceration in half the patients treated
